This is an account of results in patent US9440982B2 (Eolas Therapeutics, Inc., priority 2012, dated 2016).

Where only a bound is given, the exact number is not on record here.

The target in one test is T1, OX1 (Homo sapiens, UniProt O43613).
T1 construct: expressed in transfected cells; host or cells: CHO (CHO-OX1, kept under selection antibiotic)
T1 sequence (O43613 1-425): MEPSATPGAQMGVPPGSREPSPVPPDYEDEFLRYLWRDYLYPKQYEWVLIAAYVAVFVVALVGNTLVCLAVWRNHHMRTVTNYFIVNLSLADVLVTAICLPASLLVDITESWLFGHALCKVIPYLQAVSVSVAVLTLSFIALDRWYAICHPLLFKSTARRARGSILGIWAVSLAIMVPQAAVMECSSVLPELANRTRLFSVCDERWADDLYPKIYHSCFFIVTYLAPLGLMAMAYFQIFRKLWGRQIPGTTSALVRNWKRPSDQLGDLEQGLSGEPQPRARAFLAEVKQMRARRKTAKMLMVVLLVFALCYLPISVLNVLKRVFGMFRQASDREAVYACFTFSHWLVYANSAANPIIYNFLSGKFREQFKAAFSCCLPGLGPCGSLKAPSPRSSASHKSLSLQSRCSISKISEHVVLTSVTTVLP
In words: Orexin receptor cell-based functional assay, [Ca2+]i by FLIPR, CHO-OX1 cells. The following applies: CHO-OX1 cells, [Ca2+]i by FLIPR, antagonist dose-range 0.1 nM-10 μM, EC90 of OXA; read-out: OX1. The procedure: Measurement of [Ca^2+]i using a FLIPR: CHO—OX1 or CHO—OX2 cells are seeded into black-walled clear-base 384-well plates (Costar) at a density of 20,000 cells per well in F12-K medium supplemented with 10% FBS and selection antibiotic (500 ug/ml G418 or 15 ug/ml Blasticidin) and cultured overnight. The cells are incubated with equal volume of calcium4 loading buffer (Molecular Devices, Inc.) containing 2.5 mM probenecid at 37° C. for 30 min, followed by putative OX1 or OX2 receptor antagonists (dose-range 0.1 nM-10 μM) for another 30 min.
The cells are incubated with equal volume of calcium6 loading buffer (Molecular Devices, Inc.) containing 2.5 mM probenecid at 37° C. for 2 h, followed by test compounds (dose-range 0.1 nM-10 μM) for another 30 min.
On to `C[C@@H]1CCCN(C(=O)c2c(-c3ncccn3)ccc(F)c2F)[C@@H]1CNc1ncc(C(F)(F)F)cn1` [Example A389, (2,3-Difluoro-6-(pyrimidin-2-yl)phenyl)((2S,3R)-3-methyl-2-(((5-(trifluoromethyl)pyrimidin-2-yl)amino)methyl)piperidin-1-yl)methanone], for which the IC50 came to 5 nM.
Take `Cc1ccc(-c2ccnc(C)c2)c(C(=O)N2CCC[C@@H](C)[C@H]2CNc2ccc(F)cn2)c1` [Example A53, ((2S,3R)-2-(((5-Fluoropyridin-2-yl)amino)methyl)-3-methylpiperidin-1-yl)(5-methyl-2-(2-methylpyridin-4-yl)phenyl)methanone]: the IC50 is 670 nM.
As to `Cc1ccc(-c2cnn(C)c2)c(C(=O)N2CC3CCCC3C2CNc2ccc(C(F)(F)F)cn2)c1` (centres unmarked) [Example A71, (5-Methyl-2-(1-methyl-1H-pyrazol-4-yl)phenyl)(1-(((5-(trifluoromethyl)pyridin-2-yl)amino)methyl)hexahydrocyclopenta[c]pyrrol-2(1H)-yl)methanone], the IC50 is 70 nM.
Regarding `Cc1ccc(NC[C@@H]2[C@H](C)CCCN2C(=O)c2cc(C)ccc2-c2cnn(C)c2)nc1` [Example A49, ((2S,3R)-3-Methyl-2-(((5-methylpyridin-2-yl)amino)methyl)piperidin-1-yl)(5-methyl-2-(1-methyl-1H-pyrazol-4-yl)phenyl)methanone], the IC50 stood at 500 nM.
Regarding `Cc1ccc(-n2nccn2)c(C(=O)N2CC3CCCC3C2CNc2ccc(C(F)(F)F)cn2)c1` (centres unmarked) [Example A69, (5-Methyl-2-(2H-1,2,3-triazol-2-yl)phenyl)(1-(((5-(trifluoromethyl)pyridin-2-yl)amino)methyl)hexahydrocyclopenta[c]pyrrol-2(1H)-yl)methanone], the IC50 is 21 nM.
As for `Cc1ccc(-c2cnn(C)c2)c(C(=O)N2CCC[C@@H](C)[C@H]2CNc2ccc(F)cn2)c1` [Example A44, ((2S,3R)-2-(((5-Fluoropyridin-2-yl)-amino)methyl)-3-methylpiperidin-1-yl)(5-methyl-2-(1-methyl-1H-pyrazol-4-yl)phenyl)methanone], the IC50 worked out at 11 nM.
Take `Cc1ccc(-n2cnc(C(F)(F)F)n2)c(C(=O)N2CCC[C@@H](C)[C@H]2CNc2ccc(C#N)cn2)c1` [Example A51, 6-((((2S,3R)-3-Methyl-1-(5-methyl-2-(3-(trifluoromethyl)-1H-1,2,4-triazol-1-yl)benzoyl)piperidin-2-yl)methyl)amino)nicotinonitrile]: the IC50 is above 1000 nM.
As to `Cc1ccc(-c2cnn(C)c2)c(C(=O)N2CCC[C@@H](C)[C@H]2COc2ccc(C(F)(F)F)cn2)c1` [Example A114, ((2S,3R)-3-Methyl-2-(((5-(trifluoromethyl)pyridin-2-yl)oxy)methyl)piperidin-1-yl)(5-methyl-2-(1-methyl-1H-pyrazol-4-yl)phenyl)methanone], the IC50 is above 1000 nM.

Still in this test, the particulars now being: Table 2; CHO-OX1 cells, EC90 of OXA; read-out: IC50 Bioactivity OX1.
With `COc1c(F)cccc1C(=O)N1CCC[C@@H](C)[C@H]1CNC(=O)c1cccc2cccnc12` (racemic) [Example 10, rac-cis-N-((1-(3-Fluoro-2-methoxybenzoyl)-3-methylpiperidin-2-yl)methyl)quinoline-8-carboxamide], the IC50 was below 3000 nM.
Take `C[C@@H]1CCCN(C(=O)c2ccccc2OC(F)(F)F)[C@@H]1CNc1ncc(Cl)cn1` (racemic) [Example 122, rac-cis-(2-(((5-Chloropyrimidin-2-yl)amino)methyl)-3-methylpiperidin-1-yl)(2-(trifluoromethoxy)phenyl)methanone]: the IC50 turned out to be 3500 nM.
Consider `Cc1ccc(-c2cnn(CCN3CCOCC3)c2)c(C(=O)N2CCC[C@@H](C)[C@H]2CNc2ccc(C(F)(F)F)cn2)c1` (racemic) [Example 111, rac-cis-(3-Methyl-2-(((5-(trifluoromethyl)pyridin-2-yl)amino)methyl)piperidin-1-yl)(5-methyl-2-(1-(2-morpholinoethyl)-1H-pyrazol-4-yl)phenyl)methanone], for which the IC50 was above 1000 nM.
Same read-out and setting: the result for `Cc1nc(C(=O)N2CCC[C@@H](C)[C@H]2CNc2ncccc2C(F)(F)F)c(-c2ccc(F)cc2)s1` (racemic) [Example 22, rac-cis-(5-(4-Fluorophenyl)-2-methylthiazol-4-yl)(3-methyl-2-(((3-(trifluoromethyl)pyridin-2-yl)amino)methyl)piperidin-1-yl)methanone] reads 82 nM; that for `O=C1C[C@@H](CNC(=O)c2cccc3cccnc23)N(C(=O)c2ccccc2-c2ccccc2)C1` [Example 6, (S)—N-((1-(Biphenylcarbonyl)-4-oxopyrrolidin-2-yl)methyl)quinoline-8-carboxamide], 30 nM.
Regarding `Cc1nc(C(=O)N2CCC[C@@H](C)[C@H]2CNc2ccnc(Cl)n2)c(-c2ccc(F)cc2)s1` (racemic) [Example 19, rac-cis-(2-(((2-Chloropyrimidin-4-yl)amino)methyl)-3-methylpiperidin-1-yl)(5-(4-fluorophenyl)-2-methylthiazol-4-yl)methanone], the IC50 was 270 nM.
With `CCc1cnc(NC[C@@H]2[C@H](C)CCCN2C(=O)c2nc(C)sc2-c2ccc(F)cc2)nc1` (racemic) [Example 16, rac-cis-(2-(((5-Ethylpyrimidin-2-yl)amino)methyl)-3-methylpiperidin-1-yl)(5-(4-fluorophenyl)-2-methylthiazol-4-yl)methanone], the IC50 was 8 nM.
As to `Cc1nc(C(=O)N2CC3CCCCC3C2CNC(=O)c2cccc3occc23)c(-c2ccccc2)s1` (single isomer, unassigned) [Example 71], the IC50 was determined as 40 nM.
Turning to `CNC1CCC(CNC(=O)c2cccc3cccnc23)N(C(=O)c2sc(C)nc2-c2ccccc2)C1` (racemic) [Example 45, N-((1-(2-Methyl-4-phenylthiazole-5-carbonyl)-5-(methylamino)piperidin-2-yl)methyl)quinoline-8-carboxamide], the IC50 is below 10000 nM.
On to `C[C@@H]1CCCN(C(=O)c2ccnn2-c2ccccc2)[C@@H]1CNc1ccc(C(F)(F)F)cn1` (racemic) [Example 119, rac-cis-(3-Methyl-2-(((5-(trifluoromethyl)pyridin-2-yl)amino)methyl)piperidin-1-yl)(1-phenyl-1H-pyrazol-5-yl)methanone], for which the IC50 is 400 nM.
Turning to `O=C(NC[C@@H]1C[C@H](F)CN1C(=O)c1ccccc1-c1ccccc1)c1cccc2cccnc12` [Example 5, N-(((2S,4S)-1-(Biphenylcarbonyl)-4-fluoropyrrolidin-2-yl)methyl)quinoline-8-carboxamide], the IC50 is 6 nM.
As to `CCc1cnc(NC[C@@H]2[C@H](CC)CCCN2C(=O)c2nc(C)sc2-c2ccc(F)cc2)nc1` (racemic) [Example 78, rac-cis-(3-Ethyl-2-(((5-ethylpyrimidin-2-yl)amino)methyl)piperidin-1-yl)(5-(4-fluorophenyl)-2-methylthiazol-4-yl)methanone], the IC50 stood at 2 nM.
For `Cc1nc(-c2ccccc2)c(C(=O)N2CC(F)CCC2CNC(=O)c2cccc3cccnc23)s1` (racemic) [Example 35, N-((5-Fluoro-1-(2-methyl-4-phenylthiazole-5-carbonyl)piperidin-2-yl)methyl)quinoline-8-carboxamide], the IC50 is 2 nM.
Turning to `Cc1nc(C(=O)N2CCC[C@@H](C)[C@H]2CNc2nccnc2Cl)c(-c2ccc(F)cc2)s1` (racemic) [Example 121, rac-cis-(2-(((3-Chloropyrazin-2-yl)amino)methyl)-3-methylpiperidin-1-yl)(5-(4-fluorophenyl)-2-methylthiazol-4-yl)methanone], the IC50 was above 1000 nM.
For `Cc1nc(C(=O)N2CC(N)CCC2CNC(=O)c2cccc3cccnc23)c(-c2cccc(F)c2)s1` (racemic) [Example 53, N-((5-Amino-1-(5-(3-fluorophenyl)-2-methylthiazole-4-carbonyl)piperidin-2-yl)methyl)quinoline-8-carboxamide], the IC50 is 65 nM.
For `Cc1nc(C(=O)N2CCC[C@@H](C)[C@H]2CNc2cc(C(F)(F)F)ccn2)c(-c2ccc(F)cc2)s1` (racemic) [Example 21, rac-cis-(5-(4-Fluorophenyl)-2-methylthiazol-4-yl)(3-methyl-2-(((4-(trifluoromethyl)pyridin-2-yl)amino)methyl)piperidin-1-yl)methanone], the IC50 came out at 24 nM.
As for `Cc1nc(C(=O)N2CC(NCCO)CCC2CNC(=O)c2cccc3cccnc23)c(-c2cccc(F)c2)s1` (racemic) [Example 54, N-((1-(5-(3-Fluorophenyl)-2-methylthiazole-4-carbonyl)-5-(2-hydroxyethylamino)piperidin-2-yl)methyl)quinoline-8-carboxamide], the IC50 was found to be 180 nM.
As for `Cc1nc(-c2ccccc2)c(C(=O)N2CCC(F)(F)[C@H]2CNC(=O)c2cccc3cccnc23)s1` [Example 133, (R)—N-((3,3-Difluoro-1-(2-methyl-4-phenylthiazole-5-carbonyl)pyrrolidin-2-yl)methyl)quinoline-8-carboxamide], the IC50 came out at 12 nM.
